Results taken from the supplement of paper PMC11061612.

Experiments:
[1] = test system: 697 (B-Lymphoblastic Leukemia); assay: Bliss excess, mean over the matrix (fraction); higher = more synergy
Summary of the method: (§1)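 After 24 hours at 37°C and 5% CO2 in 1536-well plates, cells in DMEM/F12 or RPMI plus 10% FBS received two-drug dose matrices for 72 hours. Viability came from CellTiter-Glo 2.0 luminescence and was scaled as inhibition, anchored at 0 by vehicle wells and at 1 by blank wells. Combination Emax is taken as the second-highest inhibition in the matrix, and Bliss excess as the observed combination effect less EA + EB − EA·EB, with EA and EB the single-agent effects.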

[2] = test system: CTV-1 (T-Lymphoblastic Leukemia); assay: as above
Summary of the method: as §1

[3] = test system: HPAC (Pancreatic Carcinoma); assay: as above
Summary of the method: as §1

IGR-1 (Melanoma) = assay: as above
Summary of the method: as §1

[4] = test system: IHH-4 (Thyroid Gland Carcinoma); assay: as above
Summary of the method: as §1

[5] = test system: KATOIII (Gastric Carcinoma); assay: as above
Summary of the method: as §1

[6] = test system: NCI-H1781 (Lung Adenocarcinoma); assay: as above
Summary of the method: as §1

SN12C (Kidney Carcinoma) [7] = assay: as above
Summary of the method: as §1

[8] = test system: SNU-C5 (Colorectal Carcinoma); assay: as above
Summary of the method: as §1

[9] = test system: SW1783 (Low Grade Glioma); assay: as above
Summary of the method: as §1

[10] = test system: TGBC24TKB (Biliary Tract Carcinoma); assay: as above
Summary of the method: as §1

[11] = test system: C3A (Hepatocellular Carcinoma); assay: combination Emax (second highest fraction inhibited in the dose matrix, 72 h); higher = more inhibition; extreme values may be limits of the assay
Summary of the method: as §1

[12] = test system: DOV13 (Ovarian Carcinoma); assay: as above
Summary of the method: as §1

[13] = test system: EM-2 (Chronic Myelogenous Leukemia); assay: as above
Summary of the method: as §1

[14] = test system: IHH-4 (Thyroid Gland Carcinoma); assay: as above
Summary of the method: as §1

[15] = test system: KM-H2 (Hodgkin's Lymphoma); assay: as above
Summary of the method: as §1

[16] = test system: LS-513 (Colorectal Carcinoma); assay: as above
Summary of the method: as §1

[17] = test system: MDA-MB-157 (Breast Carcinoma); assay: as above
Summary of the method: as §1

[18] = test system: NCI-H1793 (Lung Adenocarcinoma); assay: as above
Summary of the method: as §1

SN12C (Kidney Carcinoma) [19] = assay: as above
Summary of the method: as §1
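Wherever Bliss excess, mean over the matrix is given: after 72 h of two-drug dosing.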

Compound | combination Emax [15] | Bliss excess [1] | Bliss excess [2] | Bliss excess [3] | Bliss excess (IGR-1 (Melanoma)) | Bliss excess [4] | Bliss excess [5] | Bliss excess [6] | Bliss excess (SN12C (Kidney Carcinoma) [7]) | Bliss excess [8] | Bliss excess [9] | Bliss excess [10] | combination Emax [11] | combination Emax [12] | combination Emax [13] | combination Emax [14] | combination Emax [16] | combination Emax [17] | combination Emax [18] | combination Emax (SN12C (Kidney Carcinoma) [19])
NC1(C(=O)N[C@@H](CCO)c2ccc(Cl)cc2)CCN(c2ncnc3[nH]ccc23)CC1 [Capivasertib] + COc1nnc2ccc(N3CCC(c4ccc(OCCN5CCN(C)C(=O)[C@H]5C)cc4)CC3)nn12 [AZD5153] (first compound max 10 µM, 7x7, partner max 1 µM) | 0.546 | -0.065 | 0.0097 | 0.0657 | -0.0325 | 0.0199 | -0.0386 | 0.0513 | -0.0155 | 0.0669 | 0.0324 | 0.0597 | 0.478 | 0.535 | 0.958 | 0.636 | 0.641 | 0.389 | 0.37 | 0.152
C[C@@H]1COCCN1c1cc(C2([S@](C)(=N)=O)CC2)nc(-c2ccnc3[nH]ccc23)n1 [AZD6738] + O=C(c1cc(Cc2n[nH]c(=O)c3ccccc23)ccc1F)N1CCN(C(=O)C2CC2)CC1 [Olaparib] (first compound max 10 µM, 7x7, partner max 10 µM) | 0.785 | 0.0073 | 0.043 | 0.0125 | 0.0059 | 0.0506 | -0.0286 | -0.0218 | -0.0284 | -0.0258 | 0.0376 | -0.0113 | 0.429 | 0.915 | 0.984 | 0.773 | 0.722 | 0.85 | 0.379 | 0.249
CCc1c2c(nc3ccc(O)cc13)-c1cc3c(c(=O)n1C2)COC(=O)[C@]3(O)CC [SN-38] + O=C(c1cc(Cc2n[nH]c(=O)c3ccccc23)ccc1F)N1CCN(C(=O)C2CC2)CC1 [Olaparib] (first compound max 0.3 µM, 7x7, partner max 10 µM) |  | 0.0877 | 0.0665 | -0.0031 | 0.0115 | 0.0356 | -0.0478 | 0.0788 | 0.0457 |  | 0.061 | 0.0421 | 0.665 | 0.939 | 1 | 0.921 | 0.665 | 0.725 |  | 0.738
COc1nnc2ccc(N3CCC(c4ccc(OCCN5CCN(C)C(=O)[C@H]5C)cc4)CC3)nn12 [AZD5153] + CN(CC[C@H](CSC1=CC=CC=C1)NC2=C(C=C(C=C2)S(=O)(=O)NC(=O)C3=CC=C(C=C3)N4CCC(CC4)[C@H](C5=CC=CC=C5C6=CC=C(C=C6)Cl)O)S(=O)(=O)C(F)(F)F)CCO [AZD4320] (first compound max 1 µM, 7x7, partner max 1 µM) | 0.551 | -0.0709 | 0.0057 | 0.0229 | 0.197 |  |  | -0.0212 |  | 0.0451 |  | 0.0326 | 0.489 |  | 0.988 |  |  |  | 0.323 | 
CN(CCO)CC[C@H](CSc1ccccc1)Nc1ccc(S(=O)(=O)NC(=O)c2ccc(N3CCC([C@@H](O)c4ccccc4-c4ccc(Cl)cc4)CC3)cc2)cc1S(=O)(=O)C(F)(F)F [AZD4320] + C[C@@H](Nc1cc(F)cc(F)c1)c1cc(C(=O)N(C)C)cc2c(=O)cc(N3CCOCC3)oc12 [AZD8186] (first compound max 1 µM, 7x7, partner max 3 µM) |  | -0.003 | 0.0326 | -0.0014 | 0.0019 | 0.0438 | -0.0856 | 0.0358 | -0.0193 | -0.0704 | -0.0348 | 0.0011 | 0.632 | 0.916 | 0.959 | 0.516 | 0.708 | 0.349 | 0.342 | 0.331
C[C@@H](c1ccc2nccn2c1)n1nnc2ncc(-c3cnn(C)c3)nc21 [Savolitinib] + CN(CC[C@H](CSC1=CC=CC=C1)NC2=C(C=C(C=C2)S(=O)(=O)NC(=O)C3=CC=C(C=C3)N4CCC(CC4)[C@H](C5=CC=CC=C5C6=CC=C(C=C6)Cl)O)S(=O)(=O)C(F)(F)F)CCO [AZD4320] (first compound max 1 µM, 7x7, partner max 1 µM) | 0.146 | -0.0412 | -0.0887 | -0.0347 | -0.0913 |  |  | -0.053 |  | -0.0448 |  | 0.0233 | 0.183 |  | 0.971 |  |  |  | 0.168 | 

Now from value to molecule, other results behind:

combination Emax [15] | Compound | Bliss excess [1] | Bliss excess [2] | Bliss excess [3] | Bliss excess (IGR-1 (Melanoma)) | Bliss excess [4] | Bliss excess [5] | Bliss excess [6] | Bliss excess (SN12C (Kidney Carcinoma) [7]) | Bliss excess [8] | Bliss excess [9] | Bliss excess [10] | combination Emax [11] | combination Emax [12] | combination Emax [13] | combination Emax [14] | combination Emax [16] | combination Emax [17] | combination Emax [18] | combination Emax (SN12C (Kidney Carcinoma) [19])
0.909 | CN(CCO)CC[C@H](CSc1ccccc1)Nc1ccc(S(=O)(=O)NC(=O)c2ccc(N3CCC([C@@H](O)c4ccccc4-c4ccc(Cl)cc4)CC3)cc2)cc1S(=O)(=O)C(F)(F)F [AZD4320] + C[C@@H]1COCCN1C2=NC(=NC(=C2)C3(CC3)[S@](=N)(=O)C)C4=C5C=CNC5=NC=C4 [AZD6738] (first compound max 1 µM, 7x7, partner max 10 µM) | 0.013 | -0.0498 | -0.007 | 0.0464 | -0.0231 | -0.0397 | -0.0005 | -0.0499 | -0.0131 | -0.106 | -0.0245 | 0.52 | 0.974 | 0.988 | 0.769 | 0.821 | 0.94 | 0.498 | 0.328
0.979 | CN(CCO)CC[C@H](CSc1ccccc1)Nc1ccc(S(=O)(=O)NC(=O)c2ccc(N3CCC([C@@H](O)c4ccccc4-c4ccc(Cl)cc4)CC3)cc2)cc1S(=O)(=O)C(F)(F)F [AZD4320] + C=CCn1c(=O)c2cnc(Nc3ccc(N4CCN(C)CC4)cc3)nc2n1-c1cccc(C(C)(C)O)n1 [AZD1775] (first compound max 1 µM, partner max 1 µM) | 0.0545 | -0.0115 | -0.0048 | 0.146 | 0.0051 | -0.043 | -0.003 | -0.0099 | -0.0062 | 0.0433 | -0.0323 | 0.631 | 0.999 | 0.99 | 0.694 | 0.866 | 0.67 | 0.449 | 0.322
0.814 | Cc1c2c(nn1C)CSCc1cc(n(C)n1)CSc1cc(c3ccccc3c1)OCCCc1c(C(=O)O)n(C)c3c-2c(Cl)ccc13 [AZD5991] + C[C@@H]1COCCN1C2=NC(=NC(=C2)C3(CC3)[S@](=N)(=O)C)C4=C5C=CNC5=NC=C4 [AZD6738] (first compound max 1 µM, 7x7, partner max 10 µM) | 0.0058 | 0.0021 | 0.0409 | 0.105 | 0.0349 | -0.0192 | 0.0103 | -0.0144 | -0.011 | 0.0272 | -0.006 | 0.437 | 0.926 | 0.98 | 0.709 | 0.752 | 0.966 | 0.488 | 0.228
0.448 | CC1(C)CCC(CN2CCN(c3ccc(C(=O)NS(=O)(=O)c4ccc(NCC5CCOCC5)c([N+](=O)[O-])c4)c(Oc4cnc5[nH]ccc5c4)c3)CC2)=C(c2ccc(Cl)cc2)C1 [Venetoclax] + COc1cc(Nc2ncc3c(n2)-c2ccc(Cl)cc2C(c2c(F)cccc2OC)=NC3)ccc1C(=O)O [Alisertib] (first compound max 1 µM, 7x7, partner max 10 µM) | 0.0193 | -0.0095 | -0.0517 | 0.0759 | -0.0216 | -0.0587 | -0.0303 | -0.0985 | -0.0682 | -0.0178 | 0.0487 | 0.302 | 0.693 | 0.903 | 0.411 | 0.55 | 0.649 | 0.612 | 0.318
0.608 | CC(=O)c1c(C)c2cnc(Nc3ccc(N4CCNCC4)cn3)nc2n(C2CCCC2)c1=O [Palbociclib] + CN(CC[C@H](CSC1=CC=CC=C1)NC2=C(C=C(C=C2)S(=O)(=O)NC(=O)C3=CC=C(C=C3)N4CCC(CC4)[C@H](C5=CC=CC=C5C6=CC=C(C=C6)Cl)O)S(=O)(=O)C(F)(F)F)CCO [AZD4320] (first compound max 10 µM, 7x7, partner max 1 µM) | -0.0718 | -0.0365 | -0.0765 | -0.0387 |  |  | -0.0811 |  | 0.025 |  | -0.0727 | 0.639 |  | 0.95 |  |  |  | 0.337 | 
0.143 | Cc1c2c(nn1C)CSCc1cc(n(C)n1)CSc1cc(c3ccccc3c1)OCCCc1c(C(=O)O)n(C)c3c-2c(Cl)ccc13 [AZD5991] + C1CN(CCC1(C(=O)N[C@@H](CCO)C2=CC=C(C=C2)Cl)N)C3=NC=NC4=C3C=CN4 [Capivasertib] (first compound max 1 µM, 7x7, partner max 3 µM) | -0.034 | 0.0027 | -0.0239 | 0.0228 | 0.0037 | -0.0267 | 0.0079 | -0.0239 | 0.0007 | -0.0145 | 0.0066 | 0.254 | 0.272 | 0.409 |  | 0.344 | 0.714 | 0.302 | 0.204
0.968 | Cc1c2c(nn1C)CSCc1cc(n(C)n1)CSc1cc(c3ccccc3c1)OCCCc1c(C(=O)O)n(C)c3c-2c(Cl)ccc13 [AZD5991] + C=CCn1c(=O)c2cnc(Nc3ccc(N4CCN(C)CC4)cc3)nc2n1-c1cccc(C(C)(C)O)n1 [AZD1775] (first compound max 1 µM, partner max 1 µM) | -0.0264 | 0.0316 | -0.0132 | 0.061 | 0.02 | -0.029 | -0.054 | 0.0306 | 0.0145 |  | -0.0375 |  | 0.829 | 0.983 | 0.684 | 0.871 | 0.958 | 0.488 | 0.358
